Measured values published in patent US20210317141A1, “OXOPYRIDO[1,2-A]PYRIMIDINE COMPOUNDS FOR THE TREATMENT AND PROPHYLAXIS OF BACTERIAL INFECTION” (Hoffmann-La Roche Inc., priority 2018, published 2021).
In brackets after ≈: the same amount, converted by molar mass. Read-outs that look alike come from different tables or passages of the source.

Assays:
E. coli (ATCC 25922) = experiment: Minimal Inhibitory Concentration (MIC) assay; assay type: cell-based; settings: Escherichia coli, read-out: MIC (μg/mL) E. coli ATCC 25922
Procedure: The in vitro potency of compounds to inhibit E. coli (ATCC 25922) growth was assessed by MIC (Minimal Inhibitory Concentration) assay. Samples were prepared from 10 mM DMSO stock solutions. After serial 2-fold dilution in DMSO in a master plate (Greiner, Cat No: 651201), 180 μL sterile distilled water was added to 20 μL each aliquot of the samples. Then […], diluted compounds were transferred into a new assay plate (Costar, 3599).
The growth medium […] Mueller Hinton Broth (CAMHB) was prepared by adding the 20 mg per liter CaCl2) and 20 mg per liter MgCl2 into the MHB medium (Jianglai Company, sterilized).
Vials of each of the test microorganisms were maintained frozen in the vapor phase of a liquid nitrogen freezer. Took out the bacteria E. coli ATCC 25922 (KWIKSTIK, 0335K) from liquid nitrogen freezer, thawed it in room temperature, and diluted the bacterial in the CAMHB medium to achieve a final inoculum of 5×10^5 CFU/mL. 90 μL CAMHB with bacteria was dispensed to the assay plate and pipetted 5 times.
Then the assay plates were incubated for 20 hours at 35° C. in ambient air. Following incubation, the MIC (μg/mL), the lowest concentration of drug that inhibits visible growth of the microorganism was read and recorded throw the microscope.

E. coli (BW25113) = experiment: 50% growth inhibitory concentration (IC50) determination assay, E. coli; assay type: cell-based; settings: Escherichia coli, growth inhibition, Iso-Sensitest broth, OD 600 nm over 16 h, 35±2° C., read-out: IC50 (μM) E. coli K12 BW25113
Procedure: (§1) The in vitro antimicrobial activity of the compounds against E. coli (BW25113, obtained from Coli Genetic Stock Center, #7636) and K. pneumoniae (ATCC10031) was determined according to the following procedure:
(§2) The assay used a 10-points Iso-Sensitest broth medium to measure quantitatively the in vitro activity of the compounds against E. coli BW25113 and K. pneumoniae ATCC 10031.
(§3) Stock compounds in DMSO were serially two-fold diluted (range from 50 to 0.097 μM final concentration) in 384 wells microtiter plates and inoculated with 49 μL the bacterial suspension in Iso-Sensitest broth medium to have a final cell concentration of ˜5×10^5 CFU/mL in a final volume/well of 50 μL/well. Microtiter plates were incubated at 35±2° C.
(§4) Bacterial cell growth was determined with the measurement of optical density at k=600 nm each 20 minutes over a time course of 16 h.
(§5) Growth inhibition was calculated during the logarithmic growth of the bacterial cells with determination of the concentration inhibiting 50% (IC50) of the growth.

[1] = test system: K. pneumoniae (ATCC10031); experiment: 50% growth inhibitory concentration (IC50) determination assay, K. pneumoniae; assay type: cell-based; settings: Klebsiella pneumoniae, growth inhibition, Iso-Sensitest broth, OD 600 nm over 16 h, * = detection limit
Procedure: as §1, §2, §3, §4, §5

[2] = Lyophilisation solubility assay (LYSA); assay type: physicochemical; settings: aqueous buffer, thermodynamic from solid; 0.05 M phosphate buffer, pH 6.5; * = detection limit
Procedure: The solubility of compounds of present invention was assessed by LYSA assay. Samples were prepared in duplicate from 10 mM DMSO stock solutions (20 μL) diluted in 30 μL pure DMSO. After evaporation of DMSO with a centrifugal vacuum evaporator, the residue was dissolved in 0.05 M phosphate buffer (150 μL, pH 6.5), stirred for one hour and shook for two hours. After one night, the solution was filtered using a microtiter filter plate. Then the filtrate and its 1/10 dilution were analyzed by HPLC-UV. In addition, a four-point calibration curve was prepared from the 10 mM stock solutions and used for the solubility determination of the compounds.

[3] = ATCC25922, CAMHB, 20 hours at 35° C.

CNc1cc(F)c(F)c2c1[nH]c1ncc(-c3cc(C)c4ncc(C(=O)O)c(=O)n4c3)c(N(C)C)c12 [Example 1.02, 7-[4-(Dimethylamino)-5,6-difluoro-8-(methylamino)-9H-pyrido[2,3-b]indol-3-yl]-9-methyl-4-oxo-pyrido[1,2-a]pyrimidine-3-carboxylic acid]
MIC (E. coli (ATCC 25922); [3]): 0.598 µg/mL (≈ 1.25 µM)
IC50 (E. coli (BW25113)): 0.262 µM
IC50 [1]: ≤ 0.098 µM

CNc1cc(F)c(F)c2c1[nH]c1ncc(-c3cc(N4CCOCC4)c4ncc(C(=O)O)c(=O)n4c3)c(N(C)C)c12 [Example 1.06, 7-[4-(Dimethylamino)-5,6-difluoro-8-(methylamino)-9H-pyrido[2,3-b]indol-3-yl]-9-morpholino-4-oxo-pyrido[1,2-a]pyrimidine-3-carboxylic acid]
MIC (E. coli (ATCC 25922); [3]): 0.122 µg/mL (≈ 0.222 µM)
IC50 (E. coli (BW25113)): 0.828 µM
IC50 [1]: 0.187 µM

CNc1cc(F)c(F)c2c1[nH]c1ncc(-c3cc(N4CCOCC4)c4ncc(C(=O)O)c(=O)n4c3)c(N3CCCC3)c12 [Example 1.07, 7-[5,6-Difluoro-8-(methylamino)-4-pyrrolidin-1-yl-9H-pyrido[2,3-b]indol-3-yl]-9-morpholino-4-oxo-pyrido[1,2-a]pyrimidine-3-carboxylic acid]
MIC (E. coli (ATCC 25922); [3]): 0.0911 µg/mL (≈ 0.158 µM)
IC50 (E. coli (BW25113)): 0.885 µM
IC50 [1]: 0.319 µM

CNc1cc(F)c(F)c2c1[nH]c1ncc(-c3ccc4ncc(C(=O)O)c(=O)n4c3)c(N3CCC4CN(C)CC43)c12 (stereo not shown) [Example 1.08, 7-[5,6-Difluoro-4-(5-methyl-2,3,3a,4,6,6a-hexahydropyrrolo[2,3-c]pyrrol-1-yl)-8-(methylamino)-9H-pyrido[2,3-b]indol-3-yl]-4-oxo-pyrido[1,2-a]pyrimidine-3-carboxylic acid]
solubility thermodynamic [2]: 60 µg/mL (≈ 110 µM)

CNc1cc(F)c(F)c2c1[nH]c1ncc(-c3cc(CN(C)C)c4ncc(C(=O)O)c(=O)n4c3)c(N3CCCC3)c12 [Example 1.15, 7-(5,6-Difluoro-8-(methylamino)-4-(pyrrolidin-1-yl)-9H-pyrido[2,3-b]indol-3-yl)-9-((dimethylamino)methyl)-4-oxo-4H-pyrido[1,2-a]pyrimidine-3-carboxylic acid]
MIC (E. coli (ATCC 25922); [3]): 0.152 µg/mL (≈ 0.278 µM)
IC50 (E. coli (BW25113)): 0.663 µM
IC50 [1]: ≤ 0.098 µM
solubility thermodynamic [2]: 19 µg/mL (≈ 34.7 µM)

CNc1cc(Cl)cc2c1[nH]c1ncc(-c3ccc4ncc(C(=O)O)c(=O)n4c3)c(N(C)C)c12 [Example 1.16, 7-(6-Chloro-4-(dimethylamino)-8-(methylamino)-9H-pyrido[2,3-b]indol-3-yl)-4-oxo-4H-pyrido[1,2-a]pyrimidine-3-carboxylic acid]
MIC (E. coli (ATCC 25922); [3]): 0.169 µg/mL (≈ 0.365 µM)
IC50 (E. coli (BW25113)): 1.97 µM
IC50 [1]: 0.183 µM

CNc1c(F)cc(F)c2c1[nH]c1ncc(-c3ccc4ncc(C(=O)O)c(=O)n4c3)c(N(C)C)c12 [Example 1.17, 7-(4-(Dimethylamino)-5,7-difluoro-8-(methylamino)-9H-pyrido[2,3-b]indol-3-yl)-4-oxo-4H-pyrido[1,2-a]pyrimidine-3-carboxylic acid]
MIC (E. coli (ATCC 25922); [3]): 0.0847 µg/mL (≈ 0.182 µM)
IC50 (E. coli (BW25113)): 0.497 µM
IC50 [1]: ≤ 0.098 µM
solubility thermodynamic [2]: 60 µg/mL (≈ 129 µM)

CNc1cc(F)c(F)c2c1[nH]c1ncc(-c3ccc4ncc(C(=O)O)c(=O)n4c3)c(N3CCC(CN(C)CC(F)F)C3)c12 (stereo not shown) [Example 1.20, 7-(4-(3-(((2,2-Difluoroethyl)(methyl)amino)methyl)pyrrolidin-1-yl)-5,6-difluoro-8-(methylamino)-9H-pyrido [2,3-b]indol-3-yl)-4-oxo-4H-pyrido[1,2-a]pyrimidine-3-carboxylic acid]
MIC (E. coli (ATCC 25922); [3]): 0.0707 µg/mL (≈ 0.118 µM)
solubility thermodynamic [2]: 165 µg/mL (≈ 276 µM)

CNc1cc(F)cc2c1[nH]c1ncc(-c3ccc4ncc(C(=O)O)c(=O)n4c3)c(N3CCC(CN(C)C4CC4)C3)c12 (stereo not shown) [Example 1.21, 7-(4-(3-((cyclopropyl(methyl)amino)methyl)pyrrolidin-1-yl)-6-fluoro-8-(methylamino)-9H-pyrido[2,3-b]indol-3-yl)-4-oxo-4H-pyrido[1,2-a]pyrimidine-3-carboxylic acid]
MIC (E. coli (ATCC 25922); [3]): 0.392 µg/mL (≈ 0.706 µM)
IC50 (E. coli (BW25113)): 4.78 µM
IC50 [1]: 0.155 µM
solubility thermodynamic [2]: 230 µg/mL (≈ 414 µM)

CNc1cc(F)c(F)c2c1[nH]c1ncc(-c3ccc4ncc(C(=O)O)c(=O)n4c3)c(N3CC(CN(C)C)C(F)(F)C3)c12 (stereo not shown) [Example 1.22, 7-[4-[4-[(dimethylamino)methyl]-3,3-difluoro-pyrrolidin-1-yl]-5,6-difluoro-8-(methylamino)-9H-pyrido[2,3-b]indol-3-yl]-4-oxo-pyrido[1,2-a]pyrimidine-3-carboxylic acid]
solubility thermodynamic [2]: 65 µg/mL (≈ 111 µM)

CNc1cc(F)c(Cl)c2c1[nH]c1ncc(-c3ccc4ncc(C(=O)O)c(=O)n4c3)c(N(C)C)c12 [Example 1.23, 7-(5-Chloro-4-(dimethylamino)-6-fluoro-8-(methylamino)-9H-pyrido[2,3-b]indol-3-yl)-4-oxo-4H-pyrido[1,2-a]pyrimidine-3-carboxylic acid]
MIC (E. coli (ATCC 25922); [3]): 0.0871 µg/mL (≈ 0.181 µM)
IC50 (E. coli (BW25113)): 0.458 µM
IC50 [1]: ≤ 0.098 µM

CNc1cc(F)cc2c1[nH]c1ncc(-c3ccc4ncc(C(=O)O)c(=O)n4c3)c(N3CCC(c4ccccc4)C3)c12 (stereo not shown) [Example 1.25, 7-(6-Fluoro-8-(methylamino)-4-(3-phenylpyrrolidin-1-yl)-9H-pyrido[2,3-b]indol-3-yl)-4-oxo-4H-pyrido[1,2-a]pyrimidine-3-carboxylic acid]
MIC (E. coli (ATCC 25922); [3]): 0.697 µg/mL (≈ 1.27 µM)

CNc1c(F)c(F)cc2c1[nH]c1ncc(-c3ccc4ncc(C(=O)O)c(=O)n4c3)c(N3CC[C@@H](N(C)C)C3)c12 [Example 1.27, (R)-7-(4-(3-(Dimethylamino)pyrrolidin-1-yl)-6,7-difluoro-8-(methylamino)-9H-pyrido[2,3-b]indol-3-yl)-4-oxo-4H-pyrido[1,2-a]pyrimidine-3-carboxylic acid]
MIC (E. coli (ATCC 25922); [3]): 0.759 µg/mL (≈ 1.42 µM)
solubility thermodynamic [2]: 31 µg/mL (≈ 58.1 µM)

CNc1cc(F)c(F)c2c1[nH]c1ncc(-c3ccc4ncc(C(=O)O)c(=O)n4c3)c(N3CCN4CCOCC4C3)c12 (stereo not shown) [Example 1.28, 7-(5,6-Difluoro-4-(hexahydropyrazino[2,1-c][1,4]oxazin-8(1H)-yl)-8-(methylamino)-9H-pyrido[2,3-b]indol-3-yl)-4-oxo-4H-pyrido[1,2-a]pyrimidine-3-carboxylic acid compound with formic acid]
MIC (E. coli (ATCC 25922); ATCC25922, 20 h): 0.356 µg/mL (≈ 0.634 µM)

CNc1cc(F)c(F)c2c1[nH]c1ncc(-c3cc(N4CCOCC4)c4ncc(C(=O)O)c(=O)n4c3)c(N(C)C)c12 [Example 1.32, 7-[4-(Dimethylamino)-5,6-difluoro-8-(methylamino)-9H-pyrido[2,3-b]indol-3-yl]-9-morpholino-4-oxo-pyrido[1,2-a]pyrimidine-3-carboxylic acid]
solubility thermodynamic [2]: 43 µg/mL (≈ 78.2 µM)

CNc1cc(F)c(F)c2c1[nH]c1ncc(-c3cc(C)c4ncc(C(=O)O)c(=O)n4c3)c(N3CCC4CN(C)CC43)c12 (stereo not shown) [Example 1.33, 7-[5,6-Difluoro-4-(5-methyl-2,3,3a,4,6,6a-hexahydropyrrolo[2,3-c]pyrrol-1-yl)-8-(methylamino)-9H-pyrido[2,3-b]indol-3-yl]-9-methyl-4-oxo-pyrido[1,2-a]pyrimidine-3-carboxylic acid]
MIC (E. coli (ATCC 25922); [3]): 0.164 µg/mL (≈ 0.293 µM)
solubility thermodynamic [2]: 275 µg/mL (≈ 491 µM)

CNc1cc(F)c(F)c2c1[nH]c1ncc(-c3cc(CN4CCC5CN(C)CC54)c4ncc(C(=O)O)c(=O)n4c3)c(N(C)C)c12 (stereo not shown) [Example 2.06, 7-[4-(Dimethylamino)-5,6-difluoro-8-(methylamino)-9H-pyrido[2,3-b]indol-3-yl]-9-[(5-methyl-2,3,3a,4,6,6a-hexahydropyrrolo[2,3-c]pyrrol-1-yl)methyl]-4-oxo-pyrido[1,2-a]pyrimidine-3-carboxylic acid]
MIC (E. coli (ATCC 25922); [3]): 0.84 µg/mL (≈ 1.39 µM)
solubility thermodynamic [2]: > 840 µg/mL

CNc1cc(F)c(F)c2c1[nH]c1ncc(-c3cc(C)c4ncc(C(=O)O)c(=O)n4c3)c(C3CC3)c12 [Example 3.01, 7-[4-Cyclopropyl-5,6-difluoro-8-(methylamino)-9H-pyrido[2,3-b]indol-3-yl]-9-methyl-4-oxo-pyrido[1,2-a]pyrimidine-3-carboxylic Acid]
MIC (E. coli (ATCC 25922); [3]): 0.594 µg/mL (≈ 1.25 µM)
IC50 (E. coli (BW25113)): 0.808 µM
IC50 [1]: 0.11 µM
